The test system of data set [1] is Plasmodium falciparum. In words: Antiplasmodial activity against Plasmodium falciparum 3D7 infected in O positive erythrocytes assessed as inhibition of parasite growth at 10 uM by FACS-based assay. The data set is classed as functional.
Data set [2] has as its system Plasmodium falciparum. In words: Antiplasmodial activity against Plasmodium falciparum 3D7 infected in O positive erythrocytes assessed as inhibition of parasite growth at 50 uM by FACS-based assay. The format is functional. Background: Flow cytometry measures light scatter and fluorescence of single cells or particles in a stream.
The subject of data set [3] is Plasmodium falciparum. In words: Antiplasmodial activity against Plasmodium falciparum 3D7 infected in O positive erythrocytes assessed as inhibition of parasite growth at 30 uM by FACS-based assay. The format is functional.
The subject of data set [4] is Plasmodium falciparum. In words: Antiplasmodial activity against Plasmodium falciparum 3D7 infected in O positive erythrocytes assessed as parasitemia at 50 uM after 48 hrs by FACS-based assay (reference value: 3.484%). The format is functional.
Data set [5] deals with Plasmodium falciparum. In words: Antiplasmodial activity against Plasmodium falciparum 3D7 infected in O positive erythrocytes assessed as inhibition of parasite growth at 1 uM by FACS-based assay. The format is functional.
Data set [6] relates to Plasmodium falciparum. In words: Antiplasmodial activity against Plasmodium falciparum 3D7 infected in O positive erythrocytes assessed as parasitemia at 50 uM after 24 hrs by FACS-based assay (reference value: 1.670%). The format is functional.
Data set [7] has as its system Plasmodium falciparum. In words: Antiplasmodial activity against Plasmodium falciparum 3D7 infected in O positive erythrocytes assessed as inhibition of parasite growth at 500 nM by FACS-based assay. The format is functional.
Data set [8] relates to Plasmodium falciparum. In words: Antiplasmodial activity against Plasmodium falciparum 3D7 infected in O positive erythrocytes assessed as parasitemia at 50 uM after 36 hrs by FACS-based assay (reference value: 1.617%). The format is functional.
The subject of data set [9] is Plasmodium falciparum. In words: Antiplasmodial activity against Plasmodium falciparum 3D7 infected in O positive erythrocytes assessed as inhibition of parasite growth at 40 uM by FACS-based assay. The format is functional.
Data set [10] has as its system Plasmodium falciparum. In words: Antiplasmodial activity against Plasmodium falciparum 3D7 infected in O positive erythrocytes assessed as inhibition of parasite growth at 20 uM by FACS-based assay. The data set is classed as functional.
The test system of data set [11] is HepG2. In words: Cytotoxicity against human HepG2 cells at 10 uM after 24 hrs by MTT colorimetric assay. The format is cell-based. Particulars: hepg2, 24 h. Background: Formazan colour is commonly taken as a measure of viable cells.
The test system of data set [12] is HepG2. In words: Cytotoxicity against human HepG2 cells at 1 uM after 24 hrs by MTT colorimetric assay. The data set is classed as cell-based. Conditions: hepg2, 24 h.
In data set [13] the test system is HepG2. In words: Cytotoxicity against human HepG2 cells at 100 uM after 24 hrs by MTT colorimetric assay. The data set is classed as cell-based. Particulars: hepg2, 24 h.

The term inhibition denotes the share of the control response that was lost under treatment. As for `C[C@]12CCC(=O)N1[C@H](CO)Cc1ccccc12`, the inhibition at 10 µM in data set [1] came out at 5.67%. For the same molecule, the inhibition at 50 µM in data set [2] came to 19.1%.

On to `CN(C)C[C@@H]1Cc2ccccc2[C@@]2(C)CCC(=O)N12`, for which the inhibition at 10 µM in data set [1] stood at 1.92%. In addition, the inhibition at 50 µM in data set [2] worked out at 12.7%.

With `CCOC(=O)C1C[C@]2(C)c3ccccc3C[C@@H](CN(C)C)N2C1=O` (stereo not given in full), in [1], the inhibition at 10 µM was 7.19%. Further, the inhibition at 50 µM in data set [2] came to 74.5%.

As to `CCOC(=O)[C@]1(c2ccc([N+](=O)[O-])cc2[N+](=O)[O-])C[C@]2(C)c3ccccc3C[C@@H](CN(C)C)N2C1=O`, the inhibition at 30 µM in data set [3] was determined as 48.9%. The inhibition at 10 µM in data set [1] stood at 71.6%. Further, the inhibition at 50 µM in [2] amounted to 89.6%. Moreover, the Activity is 1.283% in data set [4], 1.737% in [6] and 1.217% in data set [8]. In addition, the inhibition at 1 µM in data set [5] came to 0%. For the same molecule, the inhibition at 0.5 µM in [7] stood at 0%. Moreover, in data set [9], the inhibition at 40 µM was 61.5%. Moreover, in data set [10], the inhibition at 20 µM was found to be 21.1%.

For the molecule `CCOC(=O)[C@@]1(c2ccc([N+](=O)[O-])cc2[N+](=O)[O-])C[C@]2(C)c3ccccc3C[C@@H](CN(C)C)N2C1=O`, the inhibition at 30 µM in data set [3] was found to be 52.9%. Moreover, in data set [1], the inhibition at 10 µM stood at 0.385%. Besides, the inhibition at 50 µM in data set [2] is 91.5%. Also, the Activity in data set [4] was determined as 0.9355%; in [6], 1.421%; in data set [8], 1.571%. Further, in [5], the inhibition at 1 µM was found to be 5.77%. Further, the inhibition at 0.5 µM in data set [7] is 0%. The inhibition at 40 µM in [9] is 66.5%. In addition, the inhibition at 20 µM in [10] was determined as 48.1%.

As to `CN(C)C[C@@H]1Cc2ccccc2[C@@]2(C)C[C@]3(C(=O)Nc4cc(N)ccc43)C(=O)N12`, in data set [3], the inhibition at 30 µM was determined as 53.9%. For the same molecule, the inhibition at 10 µM in data set [1] stood at 6.54%. The inhibition at 50 µM in data set [2] was determined as 82.3%. In addition, the Activity is 5% in [11], -23% in data set [12] and -36% in [13]. In [5], the inhibition at 1 µM was 2.88%. The inhibition at 0.5 µM in data set [7] was found to be 0%. For the same molecule, in data set [9], the inhibition at 40 µM is 62.5%. Besides, the inhibition at 20 µM in data set [10] is 34.6%.

For `CN(C)C[C@@H]1Cc2ccccc2[C@@]2(C)C[C@@]3(C(=O)Nc4cc(N)ccc43)C(=O)N12`, in data set [1], the inhibition at 10 µM worked out at 5.38%. In addition, the inhibition at 50 µM in [2] came out at 10.1%. Further, the figures for the Activity in [11], in data set [12] and in data set [13] were -6%, -52% and -39%, respectively.

In the case of `CN(C)C[C@@H]1Cc2ccccc2[C@@]2(C)C[C@]3(C(=O)Nc4ccccc43)C(=O)N12`, the inhibition at 30 µM in data set [3] was 48.1%. Besides, the inhibition at 10 µM in [1] amounted to 30.1%. Also, the inhibition at 50 µM in [2] was determined as 59.7%. For the same molecule, the results for the Activity in data set [11], in data set [12] and in [13] were 1%, -54% and -29%, respectively. Further, in data set [5], the inhibition at 1 µM came out at 1.92%. In addition, the inhibition at 0.5 µM in [7] was found to be 0%. The inhibition at 40 µM in data set [9] came to 51.9%. For the same molecule, the inhibition at 20 µM in data set [10] was 44.2%.

For the molecule `CN(C)C[C@@H]1Cc2ccccc2[C@@]2(C)C[C@@]3(C(=O)Nc4ccccc43)C(=O)N12`, in [3], the inhibition at 30 µM worked out at 52.4%. Also, the inhibition at 10 µM in [1] is 14.8%. Further, the inhibition at 50 µM in data set [2] was determined as 64.6%. Also, the Activity in [11] is given as -4%; in [12] it was -7%; in [13] it was -4%. The inhibition at 1 µM in data set [5] was found to be 2.64%. Besides, the inhibition at 0.5 µM in data set [7] was determined as 0.721%. The inhibition at 40 µM in data set [9] turned out to be 59.1%. Besides, in [10], the inhibition at 20 µM came out at 37%.

Regarding `C=CCC1(CC=C)C[C@]2(C)c3ccccc3C[C@@H](CO)N2C1=O`, the inhibition at 10 µM in [1] stood at 2.27%. Moreover, the inhibition at 50 µM in [2] was 3.1%.

As to `C[C@]12CC3(CC=CC3)C(=O)N1[C@H](CO)Cc1ccccc12`, the inhibition at 10 µM in [1] was 1.8%. In addition, the inhibition at 50 µM in data set [2] amounted to 2.13%. Besides, the Activity in data set [11] was -24%; in data set [4] it was 0.9149%; in data set [12], -5%; in data set [6], 0.7444%; in data set [13], -155%; in data set [8] it was 1.161%.

In the case of `C[C@]12CC3(CCCC3)C(=O)N1[C@H](CO)Cc1ccccc12`, the inhibition at 10 µM in [1] is 0.971%. In data set [2], the inhibition at 50 µM was determined as 1.53%. The Activity in data set [11] was -15%; in data set [4], 1.06%; in [12], -63%; in [6] it was 1.024%; in data set [13] it was 10%; in data set [8] it was 1.407%.

Take `C[C@]12C[C@@]3(C(=O)NCC3c3ccccc3)C(=O)N1[C@H](CO)Cc1ccccc12` (stereo not given in full): the Activity in data set [4] is 1.058%; in [6], 1.209%; in data set [8] it was 1.255%.

For `C[C@]12C[C@]3(C(=O)NCC3c3ccccc3)C(=O)N1[C@H](CO)Cc1ccccc12` (stereo not given in full), the Activity in data set [11] is reported as -19%; in [12], -29%; in [13] it was -41%.

`COC(=O)C1(C(C[N+](=O)[O-])c2ccccc2)C[C@]2(C)c3ccccc3C[C@@H](CO)N2C1=O` (mixture of isomers): the inhibition at 10 µM in [1] turned out to be 1.21%. Moreover, in [2], the inhibition at 50 µM was 1.9%. Besides, the Activity is -3% in data set [11], -45% in [12] and -55% in data set [13].

The record behind these values is ChEMBL document CHEMBL3576858, “A natural product based DOS library of hybrid systems” (Eur J Med Chem, 2015).
